Paper PMC12648101, “Targeting SARS-CoV-2 main protease for the discovery of a broad-spectrum COVID-19 inhibitor by intensive multi-tiered validation” (Acta Pharmaceutica Sinica. B, 2025)
“Also recorded” adds a separate entry of the source. Read-outs that look alike come from different tables or passages of the source.

Assays:
[1] = test system: Caco-2 cells; experiment: Caco-2 bidirectional permeability assay; format: in vitro ADME
[2] = Caco-2 bidirectional permeability assay; format: in vitro ADME; details: human, pH 7.4
[3] = Pharmacokinetic study in rats (LC-MS/MS); format: in vivo, Sprague–Dawley (SD) rats; details: male, Sprague-Dawley, plasma, rat
Method: The PK study was strictly conducted according to the National Medical Products Administration (NMPA) Good Laboratory Practice (GLP) guidelines, which was undertaken at the Animal Center of Tianjin University of Traditional Chinese Medicine. Sprague–Dawley (SD) rats were supplied by Beijing Vital River Laboratory Animal Technology Co., Ltd. (Beijing, China). Male SD rats (n = 5 per group, weights: 180–200 g and age: 6–8 weeks) were administered by CHLA (solubilized in DMSO: 0.9% NaCl = 5:95, v/v) at doses of 10 and 5 mg/kg via intragastric (i.g.) and intravenous (i.v.) routes, respectively. Blood samples were collected at specified intervals post-administration (0.033, 0.083, 0.166, 0.25, 0.5, 1, 4, 6, 8, 12, 24, 36, and 48 h), followed by centrifugation at 4000 rpm (Thermo Scientific Sorvall ST 40R Centrifuge, Osterode, Germany) and 4 °C for 10 min. The supernatant plasma was stored at −20 °C for subsequent analysis.
Analysis was performed on a Shimadzu LC-20AD Prominence Liquid Chromatograph (Shimadzu Corporation, Japan)–AB Sciex API […] mass spectrometer (Applied Biosystems, USA) (LC–MS/MS). Samples were separated on an Agilent Poroshell 120 EC-C18 column (2.7 μm, 3.0 mm × 50 mm) (Agilent, USA). The column temperature was 35 °C, and the mobile phase consisted of water with 0.1% formic acid (v/v, buffer A) and acetonitrile with 0.1% formic acid (v/v, buffer B). The elution was conducted according to a 5-min gradient program (0–0.5 min, 10% buffer B; 0.5–2 min, 10%–90% buffer B; 2–3.5 min, 90% buffer B; 3.5–5 min, 10% buffer B), with the flow rate set at 0.5 mL/min and the injection volume at 10 μL. The mass spectrometry operated in positive MRM mode, targeting the precursor and product ions of CHLA (m/z 953.3 →301.1 and 953.3 →275.1, respectively). Tolbutamide served as the internal standard (IS), with precursor and product ions at 269.1 →170.1. The parameters were analyzed by […] via DAS 3.2.8 software. The regression equation for CHLA, based on the peak area ratio of CHLA to IS against the concentration, was (Eq. (1)):(1) y=0.0000796x+0.000162(r=0.9968) indicating a strong correlation.

[4] = test system: SARS-CoV-2 Omicron BA.2.3; experiment: microbe, parasite or virus in culture; format: cell-based; details: Severe acute respiratory syndrome coronavirus 2, Vero C1008, 48 h
[5] = Cell viability assay (CCK-8); format: cell-based; details: African green monkey; Vero E6 cells, CCK8, 48 h
Method: Cell viability was assessed using the Cell Counting Kit-8 assay (CCK-8, MedChemExpress, China). In brief, Vero E6 cells (ATCC, CRL-1586) at a density of 5 × 10^4 cells/well were seeded into 96-well plates for 24 h. Cells were cultured in Dulbecco's modified Eagle's medium (DMEM) (Gibco, USA), supplemented with 10% (v/v) serum, 100 U/mL penicillin, and 100 μg/mL streptomycin. Serial dilutions of CHLA (200 μL) at concentrations of 100, 80, 60, 40, 20, 10, and 5 μmol/L were added to wells and incubated for another 24 or 48 h, respectively. Following the incubation, the existing medium was replaced with fresh medium containing a 10% CCK-8 solution and incubated at 37 °C for 1 h. Absorbance at 450 nm was measured using a Microplate Reader (TECAN Sunrise™) to determine the final optical density. Data were analyzed using GraphPad Prism 8.0 software (version 8.0). All experiments were performed in triplicate to ensure reliability.

[6] = Acute toxicity test in mice; format: in vivo, C57BL/6 mice; details: 200 and 500 mg/kg, i.g.
Method: Specific-pathogen-free (SPF) C57BL/6 mice were used, balanced for gender, with males and females weighing 18–20 g. The Institutional Committee approved all animal experiment procedures in this study for Animal Care and Biosafety at the Animal Center, Tianjin University of Traditional Chinese Medicine. CHLA was weighed and subsequently dissolved in a 5% DMSO solution, which was then diluted with normal saline (0.9% sodium chloride solution) and mixed to achieve the desired concentration. To evaluate CHLA's acute toxicity, mice were randomly allocated into three groups (n = 10): a control group administered normal saline, and two treatment groups administered CHLA solution at 200 and 500 mg/kg, respectively. We monitored all mice that occurred twice daily over 14 days, focusing on toxicological signs, changes in body weight, and behavioral abnormalities. Upon concluding the study, specimens from blood, heart, liver, spleen, lung, and kidney were harvested for analysis.

[7] = test system: SARS-CoV-2 Omicron BA.4; experiment: microbe, parasite or virus in culture; format: cell-based; details: Severe acute respiratory syndrome coronavirus 2, Vero C1008, 48 h
[8] = test system: SARS-CoV-2 Delta; experiment: microbe, parasite or virus in culture; format: cell-based; details: Severe acute respiratory syndrome coronavirus 2, Vero C1008, 48 h
[9] = test system: SARS-CoV-2 Omicron BA.5; experiment: microbe, parasite or virus in culture; format: cell-based; details: Severe acute respiratory syndrome coronavirus 2, Vero C1008, 48 h
[10] = test system: SARS-CoV-2 WT; format: in vivo, K18-hACE2 transgenic mice; details: for lung live viral titers vs Virus group: three days post-infection; for body weight of infected mice: 1000 FFU SARS-CoV-2 WT
[11] = test system: SARS-CoV-2 Omicron BA.1.1; experiment: microbe, parasite or virus in culture; format: cell-based; details: Severe acute respiratory syndrome coronavirus 2, Vero C1008, 48 h
[12] = Solubility of the dosing preparation at the effective dose; format: physicochemical; details: 300 mg/kg dose, saline with 5% DMSO
Method: In vivo, a total of 20 female K18-hACE2 transgenic mice aged 8 weeks were obtained from GemPharmatech (Nanjing, China), which were classified into four groups with five mice in each group: Group 1 served as the untreated, infected control (Virus group); Group 2 received 300 mg/kg of PF-07321332 as the positive control; and Groups 3 and 4 were administered CHLA at doses of 150 and 300 mg/kg, respectively. On Day 0, these K18-hACE2 mice were intranasally inoculated with 1000 FFU of SARS-CoV-2 WT, which was pre-diluted in 50 μL of DMEM. The therapeutic administration was commenced 2 h after infection. The K18-hACE2 transgenic mice were orally administered with either PF-07321332 (300 mg/kg) or CHLA at varying doses (150 and 300 mg/kg), which were dissolved in a saline solution containing 5% DMSO. The mice were euthanized three days post-administration, and the lungs were collected and placed in 1 mL PBS and preserved at −80 °C to evaluate pulmonary virus titers.

[13] = test system: SARS-CoV-2 WT; experiment: Antiviral CPE assay in infected Vero E6 cells; format: cell-based; details: Severe acute respiratory syndrome coronavirus 2, Vero C1008, Vero E6, MOI 0.01, 48 h
[14] = test system: E166V mutation of M^pro; details: E166V mutant vs wild-type M^pro; cited from earlier work

Row | Compound | Papp (A–B) ([1]; Caco-2, 5 µmol/L, Table S3) | Papp A→B at 2 h, 5 μmol/L ([2]; Caco-2, 5 μmol/L) [×10⁻⁶ cm/s] | efflux ratio at 2 h, 5 μmol/L ([2]; Caco-2, 5 μmol/L) | Papp B→A at 2 h, 5 μmol/L ([2]; Caco-2, 5 µmol/L, Table S3) [×10⁻⁶ cm/s] | EC50 [4] [nM] | EC50 [7] [nM] | EC50 [8] [nM] | EC50 [9] [nM] | body weight of infected mice ([10]; 300 mg/kg oral) | lung live viral titers vs Virus group ([10]; 300 mg/kg oral) | EC50 [11] [nM] | solubility at the effective dose [12] | EC50 [13] [nM] | further results
1 | Nc1cc(N2CCCCC2)nc(N)[n+]1[O-] [Minoxidil] | 5.94 10-6, cm/s | 5.94 | 0.96 | 5.71 |  |  |  |  |  |  |  |  |  | 
2 | C[C@H]1O[C@@H](O[C@H]2[C@@H](O)C[C@H](O[C@H]3[C@@H](O)C[C@H](O[C@H]4CC[C@@]5(C)[C@H](CC[C@@H]6[C@@H]5C[C@@H](O)[C@]5(C)[C@@H](C7=CC(=O)OC7)CC[C@]65O)C4)O[C@@H]3C)O[C@@H]2C)C[C@H](O)[C@@H]1O [Digoxin] |  |  | 29.6 | 20.2 |  |  |  |  |  |  |  |  |  | Papp A→B at 2 h, 5 μmol/L ([2]; Caco-2, 5 µmol/L, Table S3): 0.68 ×10⁻⁶ cm/s
3 | O=C(O)C[C@@H]1C(=O)O[C@H]2[C@@H]3OC(=O)c4cc(O)c(O)c(O)c4-c4c(cc(O)c(O)c4O)C(=O)OC[C@H]2O[C@@H](OC(=O)c2cc(O)c(O)c(O)c2)[C@@H]3OC(=O)c2cc(O)c(O)c3c2[C@H]1[C@H](O)C(=O)O3 [CHLA, chebulagic acid] | 1.20 10-6, cm/s | 1.2 | 0.33 |  | 1110 | 1890 | 1860 | 1910 | weight recovery | significant decrease | 820 | superior solubility | 430 | AUC(0-t) ([3]; iv, i.v. 5 mg/kg): 16300 ± 1980 ng·h/mL; Cmax ([3]; iv, i.v. 5 mg/kg): 4160 ± 79.4 ng/mL; Tmax ([3]; iv, i.v. 5 mg/kg): 0.033 h; half-life ([3]; iv, i.v. 5 mg/kg): 39.6 ± 13.5 h; bioavailability ([3]; oral, i.g. 10 mg/kg vs i.v. 5 mg/kg, read-out: oral bioavailability (F)): 7.1%; AUC(0-t) ([3]; po, i.g. 10 mg/kg): 2320 ng·h/mL; Cmax ([3]; po, i.g. 10 mg/kg): 241 ng/mL; Tmax ([3]; po, i.g. 10 mg/kg): 2 h; half-life ([3]; po, i.g. 10 mg/kg): 15.2 h; CC50 at 48 h [5]: > 100000 nM; histology of lung, heart, spleen, liver and kidney [6]: No obvious histological changes; acute oral toxicity, overall finding ([6]; 14 days): safe; body weight vs control group ([6]; 14 days): no significant difference; lung live viral titers vs Virus group ([10]; 150 mg/kg oral): no significant difference; antiviral efficacy compared with positive control PF-07321332 (300 mg/kg) ([10]; 300 mg/kg oral, P > 0.05): equivalent to that of PF-07321332; also recorded: comparable to that of PF-07321332; membrane permeability, in words ([1]; Caco-2, 5 μmol/L): moderate membrane permeability; Papp (B–A) ([1]; Caco-2, 5 µmol/L, Table S3): 0.39 10-6, cm/s; Papp B→A at 2 h, 5 μmol/L ([2]; Caco-2, 5 μmol/L): 0.39 ×10⁻⁶ cm/s
4 | CC(C)(C)[C@H](NC(=O)C(F)(F)F)C(=O)N1C[C@H]2[C@@H]([C@H]1C(=O)N[C@H](C#N)C[C@@H]1CCNC1=O)C2(C)C [PF-07321332, reference compound] |  |  |  |  | 40 | 80 | 50 | 40 | weight recovery | significant decrease | 50 | poor solubility | 30 | loss of inhibitory efficacy caused by the E166V mutation [14]: over 200 fold
